What all share (assay type): cell-based
Conditions in all cases: Table 3, compounds 201-283

In one test the target is T1, TRPML2 (Homo sapiens, UniProt Q8IZK6).
T1 construct: expressed in transfected cells
T1 sequence (Q8IZK6 1-566): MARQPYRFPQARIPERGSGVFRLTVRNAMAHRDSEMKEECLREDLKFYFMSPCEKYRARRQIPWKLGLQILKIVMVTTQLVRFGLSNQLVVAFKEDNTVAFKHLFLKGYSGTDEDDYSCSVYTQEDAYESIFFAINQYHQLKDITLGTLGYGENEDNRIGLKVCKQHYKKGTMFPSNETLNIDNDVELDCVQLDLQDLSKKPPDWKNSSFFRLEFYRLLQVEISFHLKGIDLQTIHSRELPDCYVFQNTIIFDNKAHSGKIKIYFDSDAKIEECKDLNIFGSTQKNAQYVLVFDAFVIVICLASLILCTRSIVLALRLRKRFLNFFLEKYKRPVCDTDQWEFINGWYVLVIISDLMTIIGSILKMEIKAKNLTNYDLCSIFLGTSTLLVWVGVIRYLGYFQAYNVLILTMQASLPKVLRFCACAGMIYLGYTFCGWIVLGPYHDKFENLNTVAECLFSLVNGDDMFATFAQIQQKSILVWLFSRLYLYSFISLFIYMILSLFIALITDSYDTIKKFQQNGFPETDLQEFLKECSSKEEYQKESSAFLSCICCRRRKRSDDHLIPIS
In words: Fluorescent TRPML2 assay (as for TRPML1). A digest of the protocol: (§1)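 HEK-293 Trex cells with tet-inducible (0.5 ug/mL doxycycline, overnight) surface-targeted mutant channel, Fluo4-AM loaded, suspended in Ringer's with 10 mM calcium. Compounds tested 20 µM to 6 nM final, half-log steps, triplicate; fluorescence at ex 480/em 540 nm. EC50 by non-linear regression of percent activity versus plate controls.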

Another test concerns the target human TRPML1 (Homo sapiens, UniProt Q9GZU1). The test is described as follows: Fluorescent TRPML1 assay (Fluo4-AM calcium fluorescence, HEK-293 Trex cells). An outline of the steps: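 Tet-inducible HEK-293 Trex cells stably expressing surface-targeted mutant human TRPML1, induced with 0.5 ug/mL doxycycline overnight, loaded with Fluo4-AM and suspended in Ringer's with 10 mM calcium. Compounds tested from 20 μM to 6 nM final, half-log steps, in triplicate; fluorescence (ex 480/em 540) normalised to plate controls, EC50 by non-linear regression.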

Another test concerns the target T2, TRPML3 (Homo sapiens, UniProt Q8TDD5).
T2 construct: expressed in transfected cells
T2 sequence (Q8TDD5 1-553): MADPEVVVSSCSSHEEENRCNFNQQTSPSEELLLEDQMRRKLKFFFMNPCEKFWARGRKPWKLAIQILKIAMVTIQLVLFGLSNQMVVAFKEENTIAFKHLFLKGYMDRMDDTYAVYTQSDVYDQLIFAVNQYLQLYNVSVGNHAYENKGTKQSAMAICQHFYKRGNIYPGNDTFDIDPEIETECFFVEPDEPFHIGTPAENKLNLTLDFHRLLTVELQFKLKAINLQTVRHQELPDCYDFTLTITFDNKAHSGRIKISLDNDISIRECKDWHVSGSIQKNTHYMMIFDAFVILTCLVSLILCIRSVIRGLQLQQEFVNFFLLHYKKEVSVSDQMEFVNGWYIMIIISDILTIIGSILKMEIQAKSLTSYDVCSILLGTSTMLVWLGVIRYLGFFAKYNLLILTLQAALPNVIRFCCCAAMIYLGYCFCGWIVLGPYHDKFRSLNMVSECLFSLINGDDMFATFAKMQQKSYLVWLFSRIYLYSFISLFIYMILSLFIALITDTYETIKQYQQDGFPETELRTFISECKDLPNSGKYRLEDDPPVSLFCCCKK
The test is described as follows: Fluorescent TRPML3 assay (as for TRPML1). An outline of the steps:
as §1

Sequence of human TRPML1 (Q9GZU1 whole entry L15A/L16A/L577A/L578A, form open): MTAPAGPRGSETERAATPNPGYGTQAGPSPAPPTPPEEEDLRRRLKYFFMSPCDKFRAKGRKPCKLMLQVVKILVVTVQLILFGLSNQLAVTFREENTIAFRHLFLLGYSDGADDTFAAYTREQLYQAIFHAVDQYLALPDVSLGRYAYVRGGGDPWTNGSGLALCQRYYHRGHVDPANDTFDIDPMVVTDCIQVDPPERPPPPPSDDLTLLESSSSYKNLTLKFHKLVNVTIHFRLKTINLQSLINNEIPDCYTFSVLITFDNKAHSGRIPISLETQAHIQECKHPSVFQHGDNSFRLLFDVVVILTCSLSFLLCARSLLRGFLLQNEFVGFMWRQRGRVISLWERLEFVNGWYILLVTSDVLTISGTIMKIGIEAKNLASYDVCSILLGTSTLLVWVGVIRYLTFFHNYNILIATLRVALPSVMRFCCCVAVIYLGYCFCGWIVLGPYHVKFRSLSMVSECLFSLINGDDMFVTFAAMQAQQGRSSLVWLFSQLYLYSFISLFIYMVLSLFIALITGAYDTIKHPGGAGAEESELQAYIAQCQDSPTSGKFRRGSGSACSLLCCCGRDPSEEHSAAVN

Consider `C[C@@H]1CN(c2ncnc3c2c(C2CC2)cn3-c2cccc(F)c2)[C@@H](C)CN1C(=O)C(C)(C)C` [Compound 214, 1-((2R,5S)-4-(5-cyclopropyl-7-(3-fluorophenyl)-7H-pyrrolo[2,3-d]pyrimidin-4-yl)-2,5-dimethylpiperazin-1-yl)-2,2-dimethylpropan-1-one], for which the EC50 on TRPML2 is over 2000 nM; on human TRPML1, under 100 nM; on TRPML3 it was 500 to 2000 nM.

`C[C@H]1CN(C(=O)C(C)(C)C)CCN1c1ncnc2c1c(C1CC1)cn2-c1cccc(F)c1` [Compound 215, (S)-1-(4-(5-cyclopropyl-7-(3-fluorophenyl)-7H-pyrrolo[2,3-d]pyrimidin-4-yl)-3-methylpiperazin-1-yl)-2,2-dimethylpropan-1-one]: the EC50 was in the range of 100 to 500 nM on TRPML2, 100 to 500 nM on human TRPML1 and 500 to 2000 nM on TRPML3.

For `C[C@@H]1CN(c2ncnc3c2c(N2CCC2)cn3-c2cccc(Cl)c2)[C@@H](C)CN1C(=O)C(C)(C)C` [Compound 220, 1-((2R,5S)-4-(5-(azetidin-1-yl)-7-(3-chlorophenyl)-7H-pyrrolo[2,3-d]pyrimidin-4-yl)-2,5-dimethylpiperazin-1-yl)-2,2-dimethylpropan-1-one], the EC50 on TRPML2 was 100 to 500 nM; on human TRPML1 it was under 100 nM; on TRPML3, under 100 nM.

For `COC(C)(C)C(=O)N1C[C@H](C)N(c2ncnc3c2c(C(F)(F)F)cn3-c2cccc(F)c2)C[C@H]1C` [Compound 223, 1-((2R,5S)-4-(7-(3-fluorophenyl)-5-(trifluoromethyl)-7H-pyrrolo[2,3-d]pyrimidin-4-yl)-2,5-dimethylpiperazin-1-yl)-2-methoxy-2-methylpropan-1-one], the EC50 on TRPML2 is over 2000 nM; on human TRPML1, under 100 nM; at TRPML3 it was 100 to 500 nM.

As for `C[C@@H]1CN(c2nccc3c2c(C2CC2)cn3-c2cccc(F)c2)[C@@H](C)CN1C(=O)C(C)(C)C` [Compound 229, 1-((2R,5S)-4-(3-cyclopropyl-1-(3-fluorophenyl)-1H-pyrrolo[3,2-c]pyridin-4-yl)-2,5-dimethylpiperazin-1-yl)-2,2-dimethylpropan-1-one], the EC50 at TRPML2 was over 2000 nM; at human TRPML1, under 100 nM; on TRPML3 it was under 100 nM.

For the compound `C[C@@H]1CN(c2ncnc3c2c(-c2ccccc2F)cn3-c2cc(C#N)ccn2)[C@@H](C)CN1C(=O)C(C)(C)C` [Compound 230, 2-(4-((2S,5R)-2,5-dimethyl-4-pivaloylpiperazin-1-yl)-5-(2-fluorophenyl)-7H-pyrrolo[2,3-d]pyrimidin-7-yl)isonicotinonitrile], the EC50 on TRPML2, on human TRPML1 and at TRPML3 was under 100 nM in each case.

On to `[2H]C([2H])([2H])C(C(=O)N1C[C@H](C)N(c2ncnc3c2c(-c2ccccc2F)cn3-c2cc(C#N)ccn2)C[C@H]1C)(C([2H])([2H])[2H])C([2H])([2H])[2H]` [Compound 231, 2-(4-((2S,5R)-4-(2,2-bis(methyl-d3)propanoyl-3,3,3-d3)-2,5-dimethylpiperazin-1-yl)-5-(2-fluorophenyl)-7H-pyrrolo[2,3-d]pyrimidin-7-yl)isonicotinonitrile], for which the EC50 on TRPML2, at human TRPML1 and on TRPML3 was under 100 nM each time.

For the compound `COC(C)(C)C(=O)N1C[C@H](C)N(c2ncnc3c2c(-c2ccccc2F)cn3-c2cc(C#N)ccn2)C[C@H]1C` [Compound 232, 2-(5-(2-fluorophenyl)-4-((2S,5R)-4-(2-methoxy-2-methylpropanoyl)-2,5-dimethylpiperazin-1-yl)-7H-pyrrolo[2,3-d]pyrimidin-7-yl)isonicotinonitrile], the EC50 at TRPML2, on human TRPML1 and at TRPML3 was under 100 nM throughout.

Take `C[C@@H]1CN(c2ncnc3c2c(-c2ccccc2F)cn3-c2cc(C#N)ccn2)[C@@H](C)CN1C(=O)C1(F)CC1` [Compound 235, 2-(4-((2S,5R)-4-(1-fluorocyclopropane-1-carbonyl)-2,5-dimethylpiperazin-1-yl)-5-(2-fluorophenyl)-7H-pyrrolo[2,3-d]pyrimidin-7-yl)isonicotinonitrile]: the EC50 was 100 to 500 nM at TRPML2, under 100 nM on human TRPML1 and 500 to 2000 nM at TRPML3.

As to `C[C@@H]1CN(c2ncnc3c2c(C2CCC2)cn3-c2cc(C#N)ccn2)[C@@H](C)CN1C(=O)C(C)(C)C` [Compound 237, 2-(5-cyclobutyl-4-((2S,5R)-2,5-dimethyl-4-pivaloylpiperazin-1-yl)-7H-pyrrolo[2,3-d]pyrimidin-7-yl)isonicotinonitrile], the EC50 on TRPML2 is over 2000 nM; at human TRPML1, 100 to 500 nM; at TRPML3, 500 to 2000 nM.

`C[C@@H]1CN(c2ncnc3c2c(C2CCC2)cn3-c2cc(C#N)ccn2)[C@@H](C)CN1C(=O)CC(C)(C)C(F)(F)F` [Compound 239, 2-(5-cyclobutyl-4-((2S,5R)-2,5-dimethyl-4-(4,4,4-trifluoro-3,3-dimethylbutanoyl)piperazin-1-yl)-7H-pyrrolo[2,3-d]pyrimidin-7-yl)isonicotinonitrile]: the EC50 is 500 to 2000 nM at TRPML2, under 100 nM at human TRPML1 and under 100 nM at TRPML3.

With `C[C@@H]1CN(c2ncnc3c2c(C2CCC2)cn3-c2cc(C#N)ccn2)[C@@H](C)CN1C(=O)C(C)(C)C(F)(F)F` [Compound 240, 2-(5-cyclobutyl-4-((2S,5R)-2,5-dimethyl-4-(3,3,3-trifluoro-2,2-dimethylpropanoyl)piperazin-1-yl)-7H-pyrrolo[2,3-d]pyrimidin-7-yl)isonicotinonitrile], the results for the EC50 at TRPML2, at human TRPML1 and at TRPML3 were 100 to 500 nM, 100 to 500 nM and under 100 nM, respectively.

For `COC(C)(C)C(=O)N1CCN(c2ncnc3c2c(-c2ccccc2F)cn3-c2cc(C#N)ccn2)[C@@H](C)C1` [Compound 242, (S)-2-(5-(2-fluorophenyl)-4-(4-(2-methoxy-2-methylpropanoyl)-2-methylpiperazin-1-yl)-7H-pyrrolo[2,3-d]pyrimidin-7-yl)isonicotinonitrile], the EC50 is 100 to 500 nM at TRPML2, under 100 nM at human TRPML1 and 100 to 500 nM on TRPML3.

With `COC(C)(C)C(=O)N1C[C@H](C)N(c2ncnc3c2c(C2CC2)cn3-c2cccc(F)c2)C[C@H]1C` [Compound 246, 1-((2R,5S)-4-(5-cyclopropyl-7-(3-fluorophenyl)-7H-pyrrolo[2,3-d]pyrimidin-4-yl)-2,5-dimethylpiperazin-1-yl)-2-methoxy-2-methylpropan-1-one], the EC50 was 500 to 2000 nM at TRPML2, 100 to 500 nM at human TRPML1 and 100 to 500 nM on TRPML3.

`C[C@@H]1CN(c2ncnc3c2c(-c2ccccc2F)cn3-c2cc(F)ccn2)[C@@H](C)CN1C(=O)C1(F)CC1` [Compound 247, (1-fluorocyclopropyl)((2R,5S)-4-(5-(2-fluorophenyl)-7-(4-fluoropyridin-2-yl)-7H-pyrrolo[2,3-d]pyrimidin-4-yl)-2,5-dimethylpiperazin-1-yl)methanone]: the results for the concentration for a half-maximal effect (EC50) at TRPML2, on human TRPML1 and on TRPML3 were 500 to 2000 nM, under 100 nM and 500 to 2000 nM, respectively.

For `C[C@@H]1CN(c2ncnc3c2c(C2CCC2)cn3-c2cccc(F)c2)[C@@H](C)CN1C(=O)C(C)(C)C` [Compound 250, 1-((2R,5S)-4-(5-cyclobutyl-7-(3-fluorophenyl)-7H-pyrrolo[2,3-d]pyrimidin-4-yl)-2,5-dimethylpiperazin-1-yl)-2,2-dimethylpropan-1-one], the EC50 on TRPML2 was over 2000 nM; at human TRPML1, 100 to 500 nM; at TRPML3, 500 to 2000 nM.

For `C[C@@H]1CN(c2ncnc3c2c(C2CCC2)cn3-c2cccc(F)c2)[C@@H](C)CN1C(=O)CC(C)(C)C(F)(F)F` [Compound 251, 1-((2R,5S)-4-(5-cyclobutyl-7-(3-fluorophenyl)-7H-pyrrolo[2,3-d]pyrimidin-4-yl)-2,5-dimethylpiperazin-1-yl)-4,4,4-trifluoro-3,3-dimethylbutan-1-one], the figures for the EC50 on TRPML2, at human TRPML1 and on TRPML3 were 500 to 2000 nM, 100 to 500 nM and 100 to 500 nM, respectively.

What is called EC50 is the concentration giving half of the maximal effect.

Source of the values: US20240398812A1 (Caraway Therapeutics, Inc., priority 2021, published 2024).
